In ChEMBL document CHEMBL5154787 (J Med Chem, 2022):

Key:
[1] = biological target: T1, AP2-associated protein kinase 1 (Homo sapiens, UniProt Q2M2I8); experiment: Inhibition of bacterially expressed GST-Xa-tagged human AAK1 using 5-FAM-labelled Aha-KEEQSQITSQVTGQIGWR-NH2 peptide as substrate incubated for 3 hrs in presence of ATP by electrophoretic analysis
[2] = Cardiotoxicity in aortic ring (unknown origin) assessed as relaxation of phenylephrine induced aortic ring contraction at 10 uM incubated for 1 hr; format: toxicity, tissue-based, Aorta; design: scale not given: the % may be the effect or the level left; details: human
[3] = Metabolic stability in mouse liver microsomes assessed as parent compound remaining at 0.5 uM incubated for 10 mins in presence of NADPH by LC-MS/MS analysis; format: ADME, Microsome; details: liver microsomes, read-out: Stability
Cytochrome P450 3A4 = Cytochrome P450 3A4 (Homo sapiens, UniProt P08684); experiment: Inhibition of CYP3A4 (unknown origin) incubated for 10 mins in presence of NADPH by LC-MS/MS analysis; format: ADME
Cytochrome P450 3A4, sequence (P08684 whole entry): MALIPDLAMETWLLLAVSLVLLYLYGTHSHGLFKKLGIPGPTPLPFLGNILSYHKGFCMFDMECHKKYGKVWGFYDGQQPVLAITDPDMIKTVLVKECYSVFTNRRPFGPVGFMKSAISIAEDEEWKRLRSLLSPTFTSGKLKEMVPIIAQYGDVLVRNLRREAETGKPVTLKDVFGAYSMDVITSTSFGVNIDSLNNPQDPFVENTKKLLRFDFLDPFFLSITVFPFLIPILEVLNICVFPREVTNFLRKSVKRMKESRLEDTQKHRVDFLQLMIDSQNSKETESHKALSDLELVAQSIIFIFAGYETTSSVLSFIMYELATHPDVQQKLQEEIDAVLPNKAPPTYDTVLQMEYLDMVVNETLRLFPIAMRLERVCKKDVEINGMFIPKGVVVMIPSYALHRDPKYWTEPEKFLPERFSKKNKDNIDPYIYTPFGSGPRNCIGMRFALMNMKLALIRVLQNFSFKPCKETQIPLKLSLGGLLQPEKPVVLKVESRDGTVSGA

[4] = Metabolic stability in rat liver microsomes assessed as parent compound remaining at 0.5 uM incubated for 10 mins in presence of NADPH by LC-MS/MS analysis; format: ADME, Microsome; details: read-out: Stability
[5] = biological target: AP2-associated protein kinase 1 (Mus musculus, UniProt Q3UHJ0); experiment: Displacement of 3H-LP-927443 from AAK1 in C57BL6 mouse brain homogenate assessed as inhibition constant incubated for 1 hr by liquid scintillation counter analysis; format: tissue-based
AP2-associated protein kinase 1 (Mus musculus, UniProt Q3UHJ0), sequence (Q3UHJ0 whole entry): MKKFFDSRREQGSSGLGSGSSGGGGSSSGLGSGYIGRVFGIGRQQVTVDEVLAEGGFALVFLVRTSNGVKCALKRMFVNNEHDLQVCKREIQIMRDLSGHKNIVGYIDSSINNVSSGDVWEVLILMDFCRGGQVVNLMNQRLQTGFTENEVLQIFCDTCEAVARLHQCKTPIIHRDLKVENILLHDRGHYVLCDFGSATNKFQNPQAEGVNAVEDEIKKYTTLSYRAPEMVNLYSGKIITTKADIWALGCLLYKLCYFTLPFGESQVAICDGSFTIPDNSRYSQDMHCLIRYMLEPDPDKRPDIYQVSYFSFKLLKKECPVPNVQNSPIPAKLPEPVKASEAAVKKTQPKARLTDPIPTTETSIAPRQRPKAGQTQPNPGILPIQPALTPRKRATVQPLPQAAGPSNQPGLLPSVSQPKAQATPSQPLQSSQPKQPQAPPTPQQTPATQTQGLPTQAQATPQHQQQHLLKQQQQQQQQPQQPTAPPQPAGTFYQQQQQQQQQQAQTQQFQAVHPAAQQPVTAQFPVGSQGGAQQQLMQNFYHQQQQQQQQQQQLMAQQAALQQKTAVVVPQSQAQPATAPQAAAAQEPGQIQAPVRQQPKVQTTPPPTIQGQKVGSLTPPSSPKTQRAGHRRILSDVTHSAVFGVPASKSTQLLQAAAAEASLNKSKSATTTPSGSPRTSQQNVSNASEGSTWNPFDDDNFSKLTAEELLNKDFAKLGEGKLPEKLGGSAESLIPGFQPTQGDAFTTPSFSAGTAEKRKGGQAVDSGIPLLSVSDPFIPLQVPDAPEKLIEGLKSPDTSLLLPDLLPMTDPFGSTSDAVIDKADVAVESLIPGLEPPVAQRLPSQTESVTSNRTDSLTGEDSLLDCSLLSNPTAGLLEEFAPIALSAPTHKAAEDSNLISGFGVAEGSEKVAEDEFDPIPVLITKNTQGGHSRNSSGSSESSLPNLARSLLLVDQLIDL

[6] = Metabolic stability in human liver microsomes assessed as parent compound remaining at 0.5 uM incubated for 10 mins in presence of NADPH by LC-MS/MS analysis; format: ADME, Microsome; details: read-out: Stability
[7] = biological target: MAP kinase-interacting serine/threonine-protein kinase 1 (Homo sapiens, UniProt Q9BUB5); experiment: Inhibition of MNK1 (unknown origin)
MAP kinase-interacting serine/threonine-protein kinase 1, sequence (Q9BUB5 whole entry): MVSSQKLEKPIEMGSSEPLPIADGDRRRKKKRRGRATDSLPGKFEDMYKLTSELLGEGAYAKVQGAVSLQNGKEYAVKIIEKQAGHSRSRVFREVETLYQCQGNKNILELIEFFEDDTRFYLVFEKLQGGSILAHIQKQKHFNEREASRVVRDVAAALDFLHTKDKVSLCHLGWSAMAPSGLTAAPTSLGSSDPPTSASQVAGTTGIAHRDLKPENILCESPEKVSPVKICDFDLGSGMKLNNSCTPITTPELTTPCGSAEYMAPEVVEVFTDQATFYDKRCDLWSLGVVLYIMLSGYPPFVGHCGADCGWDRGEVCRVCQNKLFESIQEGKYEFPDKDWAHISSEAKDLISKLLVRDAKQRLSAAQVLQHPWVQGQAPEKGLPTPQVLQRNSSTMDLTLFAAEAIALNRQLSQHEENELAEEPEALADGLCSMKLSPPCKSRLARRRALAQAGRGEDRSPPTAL

[8] = biological target: T2, Cyclin-G-associated kinase (Homo sapiens, UniProt O14976); experiment: Inhibition of GAK (unknown origin)
T2 sequence (O14976 whole entry): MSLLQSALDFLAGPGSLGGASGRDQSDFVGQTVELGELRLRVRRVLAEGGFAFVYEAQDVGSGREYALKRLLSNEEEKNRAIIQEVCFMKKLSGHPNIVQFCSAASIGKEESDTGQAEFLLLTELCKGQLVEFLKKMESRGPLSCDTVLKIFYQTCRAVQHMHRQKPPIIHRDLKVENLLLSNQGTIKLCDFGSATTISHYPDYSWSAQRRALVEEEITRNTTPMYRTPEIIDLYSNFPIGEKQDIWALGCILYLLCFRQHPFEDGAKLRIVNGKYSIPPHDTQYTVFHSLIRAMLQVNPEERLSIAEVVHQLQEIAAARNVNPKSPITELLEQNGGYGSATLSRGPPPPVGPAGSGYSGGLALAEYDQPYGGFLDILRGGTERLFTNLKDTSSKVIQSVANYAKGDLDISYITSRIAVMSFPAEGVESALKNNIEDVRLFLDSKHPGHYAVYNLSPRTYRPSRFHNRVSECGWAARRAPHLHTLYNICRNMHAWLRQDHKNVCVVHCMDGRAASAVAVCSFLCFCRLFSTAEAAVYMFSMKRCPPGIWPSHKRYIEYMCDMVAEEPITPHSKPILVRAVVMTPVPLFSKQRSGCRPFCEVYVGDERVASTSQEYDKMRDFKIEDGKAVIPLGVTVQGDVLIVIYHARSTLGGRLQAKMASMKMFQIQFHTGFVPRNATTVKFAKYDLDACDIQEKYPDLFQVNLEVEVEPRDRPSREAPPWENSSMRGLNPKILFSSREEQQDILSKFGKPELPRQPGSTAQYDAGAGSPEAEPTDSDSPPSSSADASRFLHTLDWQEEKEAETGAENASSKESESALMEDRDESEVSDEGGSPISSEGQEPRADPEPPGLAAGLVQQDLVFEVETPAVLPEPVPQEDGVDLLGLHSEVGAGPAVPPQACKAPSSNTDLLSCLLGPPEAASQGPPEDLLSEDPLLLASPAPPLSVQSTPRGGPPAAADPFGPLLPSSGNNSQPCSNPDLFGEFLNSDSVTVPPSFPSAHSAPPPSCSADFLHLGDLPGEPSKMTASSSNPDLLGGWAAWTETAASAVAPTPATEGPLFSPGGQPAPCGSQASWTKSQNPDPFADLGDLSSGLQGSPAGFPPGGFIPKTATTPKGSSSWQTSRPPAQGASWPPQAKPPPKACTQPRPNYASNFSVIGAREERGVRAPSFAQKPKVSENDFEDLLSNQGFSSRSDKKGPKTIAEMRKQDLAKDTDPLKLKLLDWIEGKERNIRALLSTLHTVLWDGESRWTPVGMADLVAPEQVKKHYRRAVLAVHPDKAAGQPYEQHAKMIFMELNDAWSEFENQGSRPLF

[9] = biological target: Citron Rho-interacting kinase (Homo sapiens, UniProt O14578); experiment: Inhibition of CRIK (unknown origin)
Citron Rho-interacting kinase, sequence (O14578 whole entry): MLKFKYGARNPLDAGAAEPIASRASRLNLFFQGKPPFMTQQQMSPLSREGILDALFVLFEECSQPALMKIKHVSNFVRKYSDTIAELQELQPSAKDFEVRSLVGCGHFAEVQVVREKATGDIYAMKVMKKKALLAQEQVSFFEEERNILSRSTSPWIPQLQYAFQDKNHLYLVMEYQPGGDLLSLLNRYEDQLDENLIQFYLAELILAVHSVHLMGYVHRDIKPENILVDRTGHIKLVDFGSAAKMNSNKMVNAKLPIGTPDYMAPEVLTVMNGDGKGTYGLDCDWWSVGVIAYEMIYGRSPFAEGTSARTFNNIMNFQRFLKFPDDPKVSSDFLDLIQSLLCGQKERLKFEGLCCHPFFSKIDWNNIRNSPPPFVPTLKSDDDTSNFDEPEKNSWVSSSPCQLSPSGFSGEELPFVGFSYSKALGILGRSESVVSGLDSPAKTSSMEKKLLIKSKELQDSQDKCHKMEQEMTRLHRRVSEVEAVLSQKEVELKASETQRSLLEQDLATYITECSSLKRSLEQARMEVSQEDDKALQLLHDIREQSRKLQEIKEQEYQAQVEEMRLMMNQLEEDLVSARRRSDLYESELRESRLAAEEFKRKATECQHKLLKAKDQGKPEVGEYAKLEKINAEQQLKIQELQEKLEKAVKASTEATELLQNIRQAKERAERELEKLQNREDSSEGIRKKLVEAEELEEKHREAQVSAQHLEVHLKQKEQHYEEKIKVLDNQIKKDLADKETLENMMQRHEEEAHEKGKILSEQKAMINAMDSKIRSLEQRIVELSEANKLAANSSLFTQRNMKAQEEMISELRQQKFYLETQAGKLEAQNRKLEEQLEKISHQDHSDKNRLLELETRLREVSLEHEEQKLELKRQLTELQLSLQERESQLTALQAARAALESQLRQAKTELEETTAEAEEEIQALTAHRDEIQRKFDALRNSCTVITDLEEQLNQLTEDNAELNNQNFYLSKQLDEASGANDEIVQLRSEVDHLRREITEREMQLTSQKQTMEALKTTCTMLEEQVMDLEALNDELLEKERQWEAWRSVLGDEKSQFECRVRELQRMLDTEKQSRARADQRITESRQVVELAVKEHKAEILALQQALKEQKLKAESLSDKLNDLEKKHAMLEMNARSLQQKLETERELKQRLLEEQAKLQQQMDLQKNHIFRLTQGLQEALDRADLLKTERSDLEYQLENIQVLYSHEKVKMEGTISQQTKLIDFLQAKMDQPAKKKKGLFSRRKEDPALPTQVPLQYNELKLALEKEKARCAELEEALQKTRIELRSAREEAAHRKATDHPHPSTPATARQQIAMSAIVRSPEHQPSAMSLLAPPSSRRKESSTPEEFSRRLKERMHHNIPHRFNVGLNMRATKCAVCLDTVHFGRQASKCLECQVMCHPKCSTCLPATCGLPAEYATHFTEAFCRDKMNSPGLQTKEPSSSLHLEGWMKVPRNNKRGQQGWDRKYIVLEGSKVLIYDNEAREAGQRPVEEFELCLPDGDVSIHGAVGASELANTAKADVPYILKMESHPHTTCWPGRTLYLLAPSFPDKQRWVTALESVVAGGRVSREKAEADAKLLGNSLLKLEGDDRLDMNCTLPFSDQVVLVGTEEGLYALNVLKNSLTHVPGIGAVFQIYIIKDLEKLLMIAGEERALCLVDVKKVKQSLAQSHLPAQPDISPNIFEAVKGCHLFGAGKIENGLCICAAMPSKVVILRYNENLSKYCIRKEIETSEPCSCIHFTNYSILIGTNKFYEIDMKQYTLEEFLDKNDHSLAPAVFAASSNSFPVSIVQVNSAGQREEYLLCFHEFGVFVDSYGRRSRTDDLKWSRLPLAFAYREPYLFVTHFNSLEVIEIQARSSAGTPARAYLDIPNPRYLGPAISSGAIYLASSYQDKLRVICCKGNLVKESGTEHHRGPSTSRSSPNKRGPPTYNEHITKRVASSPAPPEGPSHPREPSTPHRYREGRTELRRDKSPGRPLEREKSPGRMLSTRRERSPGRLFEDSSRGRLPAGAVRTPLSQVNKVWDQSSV

[10] = biological target: Rho-associated protein kinase 2 (Homo sapiens, UniProt O75116); experiment: Inhibition of ROCK2 (unknown origin)
[11] = biological target: Myosin light chain kinase 2, skeletal/cardiac muscle (Homo sapiens, UniProt Q9H1R3); experiment: Inhibition of MYLK2 (unknown origin)
[12] = biological target: TRAF2 and NCK-interacting protein kinase (Homo sapiens, UniProt Q9UKE5); experiment: Inhibition of TNIK (unknown origin)
[13] = biological target: T1, AP2-associated protein kinase 1; experiment: Inhibition of full length human AAK1 expressed in HEK293F cells assessed as suppression of AP2 phosphorylation measured after 3 hrs by Western blot analysis based cellular assay; format: cell-based
[14] = Efflux ratio of permeability in human Caco-2 cells; format: ADME, cell-based
[15] = biological target: BMP-2-inducible protein kinase (Homo sapiens, UniProt Q9NSY1); experiment: Inhibition of BIKE (unknown origin)
[16] = Ratio of drug concentration in brain to plasma in Sprague-Dawley rat at 3 mg/kg, po measured at 2 hrs post dose; format: ADME, organism-based

T1 sequence (Q2M2I8 whole entry): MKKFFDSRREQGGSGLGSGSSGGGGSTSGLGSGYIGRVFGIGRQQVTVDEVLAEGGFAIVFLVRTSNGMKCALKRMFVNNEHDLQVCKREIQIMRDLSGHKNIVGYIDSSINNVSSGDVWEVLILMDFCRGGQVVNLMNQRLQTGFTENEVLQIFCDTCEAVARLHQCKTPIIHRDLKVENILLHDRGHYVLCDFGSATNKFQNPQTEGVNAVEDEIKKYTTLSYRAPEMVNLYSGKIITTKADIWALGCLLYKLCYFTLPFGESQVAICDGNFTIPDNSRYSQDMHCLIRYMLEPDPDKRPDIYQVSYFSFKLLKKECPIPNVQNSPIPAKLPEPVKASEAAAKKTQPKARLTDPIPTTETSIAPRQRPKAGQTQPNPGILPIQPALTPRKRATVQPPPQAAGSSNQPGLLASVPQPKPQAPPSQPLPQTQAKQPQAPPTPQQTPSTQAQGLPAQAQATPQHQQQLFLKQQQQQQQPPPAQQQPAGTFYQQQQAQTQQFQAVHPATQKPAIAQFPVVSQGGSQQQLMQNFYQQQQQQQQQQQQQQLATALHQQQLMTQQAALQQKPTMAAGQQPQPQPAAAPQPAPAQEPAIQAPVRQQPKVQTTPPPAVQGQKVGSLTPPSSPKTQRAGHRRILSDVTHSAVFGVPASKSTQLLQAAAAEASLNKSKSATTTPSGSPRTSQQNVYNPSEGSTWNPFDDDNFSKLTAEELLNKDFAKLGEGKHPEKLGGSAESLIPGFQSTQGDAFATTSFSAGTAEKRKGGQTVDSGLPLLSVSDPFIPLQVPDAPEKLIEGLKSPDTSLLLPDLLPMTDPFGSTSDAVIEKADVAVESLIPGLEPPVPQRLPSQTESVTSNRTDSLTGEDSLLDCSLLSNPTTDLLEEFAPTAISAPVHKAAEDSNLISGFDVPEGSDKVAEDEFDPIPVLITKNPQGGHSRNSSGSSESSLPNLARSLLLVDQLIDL

## COC(=O)Nc1cc(-c2cnc(OC[C@@](C)(N)CC(C)C)c(OC)c2)ccn1 (racemic)
[1]
  IC50: 3.8 nM
[2]
  Activity: 91%
[3]
  remaining at 10 min, 0.5 µM: 59%
Cytochrome P450 3A4
  IC50: > 20000 nM
[4]
  remaining at 10 min, 0.5 µM: 79%
[5]
  Ki: 2.5 nM
[6]
  remaining at 10 min, 0.5 µM: 86%

## COC(=O)Nc1cc(-c2cc(C)c(OC[C@@](C)(N)CC(C)C)cn2)ccn1
[7]
  IC50: 1300 nM
[8]
  IC50: 1800 nM
[9]
  IC50: 60 nM
[1]
  IC50: 1.7 nM
[2]
  Activity: 38%
[3]
  remaining at 10 min, 0.5 µM: 99%
Cytochrome P450 3A4
  IC50: 13000 nM
[4]
  remaining at 10 min, 0.5 µM: 100%
[10]
  IC50: 780 nM
[11]
  IC50: 600 nM
[5]
  Ki: 1.4 nM
[12]
  IC50: 690 nM
[6]
  remaining at 10 min, 0.5 µM: 100%
[13]
  IC50: 12 nM

## CC(=O)Nc1cc(-c2ccc(OC[C@@](C)(N)CC(C)C)c(C#N)c2)ccn1
[1]
  IC50: 0.6 nM
[3]
  remaining at 10 min, 0.5 µM: 71%
Cytochrome P450 3A4
  IC50: > 20000 nM
[4]
  remaining at 10 min, 0.5 µM: 78%
[5]
  Ki: 0.09 nM
[14]
  efflux ratio: 2.5
[6]
  remaining at 10 min, 0.5 µM: 64%
[13]
  IC50: 0.6 nM

## Cc1cc(-c2cc(Cl)c(OC[C@@](C)(N)CC(C)C)cn2)ccn1
[7]
  IC50: 1900 nM
[9]
  IC50: 1300 nM
[2]
  Activity: 50%
[3]
  remaining at 10 min, 0.5 µM: 71%
Cytochrome P450 3A4
  IC50: > 20000 nM
[15]
  IC50: 1500 nM
[4]
  remaining at 10 min, 0.5 µM: 73%
[5]
  Ki: 0.7 nM
[6]
  remaining at 10 min, 0.5 µM: 86%
[13]
  IC50: 1.9 nM

## CC(=O)Nc1cc(-c2ccc(OC[C@@H](N)CC(C)C)c(C)c2)ccn1
[1]
  IC50: 0.4 nM
[3]
  remaining at 10 min, 0.5 µM: 64%
Cytochrome P450 3A4
  IC50: 3900 nM
[4]
  remaining at 10 min, 0.5 µM: 99%
[5]
  Ki: 0.08 nM
[6]
  remaining at 10 min, 0.5 µM: 91%
[13]
  IC50: 1.1 nM

## CC(=O)Nc1cc(-c2ccc(OC[C@@H](N)CC(C)C)c(C#N)c2)ccn1
[3]
  remaining at 10 min, 0.5 µM: 84%
Cytochrome P450 3A4
  IC50: 2600 nM
[4]
  remaining at 10 min, 0.5 µM: 83%
[5]
  Ki: 0.04 nM
[14]
  efflux ratio: 6.3
[16]
  Kp at 2 h: 0.45
[6]
  remaining at 10 min, 0.5 µM: 87%
[13]
  IC50: 0.5 nM

## COC(=O)Nc1cc(-c2ccc(OC[C@@](C)(N)CC(C)C)c(OC(F)(F)F)c2)ccn1
[1]
  IC50: 0.6 nM
[3]
  remaining at 10 min, 0.5 µM: 43%
Cytochrome P450 3A4
  IC50: 7800 nM
[4]
  remaining at 10 min, 0.5 µM: 83%
[5]
  Ki: 0.04 nM
[6]
  remaining at 10 min, 0.5 µM: 81%
[13]
  IC50: 0.2 nM

## COC(=O)Nc1cc(-c2ccc(OC[C@@](C)(N)CC(C)C)c(C(F)(F)F)c2)ccn1
[1]
  IC50: 0.3 nM
[3]
  remaining at 10 min, 0.5 µM: 68%
Cytochrome P450 3A4
  IC50: 6900 nM
[4]
  remaining at 10 min, 0.5 µM: 74%
[5]
  Ki: 0.05 nM
[6]
  remaining at 10 min, 0.5 µM: 80%
[13]
  IC50: 1.5 nM
